Measurements reported in ChEMBL document CHEMBL1255561, “A new NF-κB inhibitor based on the amino-epoxyquinol core of DHMEQ” (Bioorg Med Chem Lett, 2010).
Active and inactive are the calls of the source. No cut-off for these calls is given here.

What was measured:
[1] = biological target: Transcription factor p65 (Homo sapiens) (UniProt Q04206); assay: Binding affinity to recombinant NF-kappaB transcription factor p65 subunit (1-325) at 4 equiv mol concentration after 1 hr by MALDI-TOF MS analysis
Chain of Transcription factor p65 (Homo sapiens) (Q04206 whole entry): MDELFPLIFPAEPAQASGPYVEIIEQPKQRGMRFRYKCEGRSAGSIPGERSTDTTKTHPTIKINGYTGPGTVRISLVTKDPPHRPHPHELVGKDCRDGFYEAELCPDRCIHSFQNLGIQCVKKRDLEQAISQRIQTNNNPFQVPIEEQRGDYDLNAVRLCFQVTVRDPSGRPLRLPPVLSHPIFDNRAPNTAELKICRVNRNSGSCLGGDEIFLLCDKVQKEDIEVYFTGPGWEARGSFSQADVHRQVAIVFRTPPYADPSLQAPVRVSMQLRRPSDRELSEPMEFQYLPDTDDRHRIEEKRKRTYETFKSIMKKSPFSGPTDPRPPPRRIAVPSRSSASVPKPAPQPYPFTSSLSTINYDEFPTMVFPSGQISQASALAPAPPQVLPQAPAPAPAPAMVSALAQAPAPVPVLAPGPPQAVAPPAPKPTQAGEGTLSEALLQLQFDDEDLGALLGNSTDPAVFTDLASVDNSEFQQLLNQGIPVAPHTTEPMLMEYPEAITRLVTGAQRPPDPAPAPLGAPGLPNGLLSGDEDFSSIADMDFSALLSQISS

RAW264.7 [2] = assay: Inhibition of LPS-induced nitric oxide production in mouse RAW264.7 cells treated 1 hr before LPS challenge measured after 24 hrs by Griess reaction; format: functional, cell-based
RAW264.7 [3] = assay: Inhibition of LPS-induced iNOS expression in mouse RAW264.7 cells at up to 30 ug/ml treated 1 hr before LPS challenge measured after 6 hrs by immunoblotting; format: functional, cell-based
RAW264.7 [4] = assay: Cytotoxicity in mouse RAW264.7 cells at 30 ug/ml after 24 hrs by MTT assay; format: cell-based; conditions: raw264.7, 24 h
RAW264.7 [5] = assay: Inhibition of LPS-induced NF-kappaB activation in mouse RAW264.7 cells at up to 30 ug/ml after 30 mins by electrophoretic mobility shift assay; format: cell-based

Activity [1] | Compound | inhibition (RAW264.7 [2]) | inhibition (RAW264.7 [3]) | Activity (RAW264.7 [4]) | inhibition (RAW264.7 [5])
inactive | C=CCOC(=O)NC1=CC(=O)[C@H]2O[C@H]2[C@@H]1O (relative stereo) | Dose-dependent effect | Active | Toxic | Active
Active | C=CCOC(=O)NC1=CC(=O)[C@H]2O[C@H]2[C@H]1O (relative stereo) | – | Active | – | –
